Measurements taken from patent US20250325517A1, “ORAL DOSAGE FORMS OF ELRAGLUSIB” (Actuate Therapeutics, Inc., priority 2022, published 2025).

Legend:
Assay type in all cases: physicochemical
[1] = 50 mg/mL elraglusib solutions in 12 Vehicle Variants, HPLC with and without syringe filtration; details: no precipitation or haziness, no visible particulates
Experimental: An initial study prepared 50 mg/mL elraglusib solutions in 12 Vehicle Variants.
Each Vehicle Variant was made to 50 mg/mL with elraglusib and was tested (with and without syringe filtration) with respect to: (1) elraglusib main peak Area %, (2) related substance RRT 0.96 Area %, and (3) related Substance Area % RRT 0.97.

[2] = Elra:PVAP and Elra:CAP ASD stability study (XRPD, mDSC, TGA, HPLC, ssNMR); details: crystallinity marker peak of API
Experimental: Both ASDs stored remained amorphous up to 12 weeks storage under the above-mentioned conditions (FIG. 21). The mDSC of the stability samples was carried out in a hermetically sealed pan without any pin hole, to determine the Tg in the presence of residual solvent or moisture (i.e., wet Tg).
An HPLC chromatogram was also obtained using HPLC monitored at 210 nm for a sample stored for 12 weeks at different conditions.
The first derivative was applied to the stability sample spectra (FIGS. 25-29). For pure amorphous samples, ssNMR produces gaussian curves that when applied to first derivative become a flat baseline. Crystalline material produces Laplacian curves by ssNMR which can be clearly observed after applying the first derivative.
Signal to noise ratio of API reference was 8.18. In all four stability samples, the signal to noise ratio for the first derivative peak at 87 ppm remained <2.
Solid-state NMR experiments were performed on a 2 channel Bruker NEO spectrometer (Bruker, Billerica, MA) operating at 100.52 MHz for 13C and 399.71 MHz for 1H. A Chemagnetics APEX probe, refitted with a 7 mm magic angle spinning module (Revolution NMR, Fort Collins, CO) was used to acquire the data. Each sample was packed into a 7 mm zirconia rotor with Kel-F spacers. The magic angle spinning (MAS) frequency that was used to acquire all of the data was 5 kHz. […]

[3] = Photo-Chamber Study 1 (10FV, 50FV, 50V7; visible and UV light)
Source text: The photo-chamber and ambient light studies used a RP-HPLC method to monitor the following: • elraglusib concentration and % LC • elraglusib main peak Area % • elraglusib RelS1, elraglusib RelS2, and elraglusib Anhydride peak Area % values.
The three solutions were maintained in both 5-mL glass serum vials and UV-transparent plastic cuvettes (each with and without foil overwrap) and exposed to fractions (approximately 0, 25, 50, 75, and 100%) of ICH Q1B photostability conditions (1200 klux-hr in the visible region and 200 watt-h/m^2 in the UV region) using a calibrated photo-chamber.

Q: Which results are given for Cn1cc(C2=C(c3coc4ccc(F)cc34)C(=O)NC2=O)c2cc3c(cc21)OCO3 [elraglusib, 3-(5-fluorobenzofuran-3-yl)-4-(5-methyl-5H-[1,3]dioxolo[4,5-f]indol-7-yl)-1H-pyrrole-2,5-dione]?
A: solubility in Vehicle Variants (visual) [1]: remained soluble at 50 mg/mL; ssNMR Signal to Noise (87-96 ppm), first derivative spectra [2]: 8.18; % LC loss rate relative to main peak Area % loss rate ([3]; photo-exposure): approximately 6 times; photo-conversion rate, visible light compared with UV light ([3]; vials and cuvettes): approximately 5 times; % LC photo-conversion rate in vials (no foil) as % of rate in cuvettes (no foil) ([3]; visible light): approximately 60%
